Where two headings read alike, the source gives them in different places.
Tests used:
EGFR-WT = EGFR-WT (Homo sapiens (Human), UniProt P00533); assay: Omnia assay for potency assessment against EGFR (WT)
BTK = BTK (Homo sapiens (Human), UniProt Q06187); assay: Omnia assay for potency assessment against BTK; format: biochemical; conditions: [BTK]=5 nM, Omnia assay; read-out: BTK Inhibition (IC50)
Description: The modified BTK-optimized reagent conditions for the above protocol are:
[BTK]=5 nM, [ATP]=[…], [Y5-Sox]=[…] (ATP KMapp˜[…]).

[1] = read-out: EGFR (wild type inhibition), EGFR wild type

EGFR-WT, sequence (P00533 668-1210): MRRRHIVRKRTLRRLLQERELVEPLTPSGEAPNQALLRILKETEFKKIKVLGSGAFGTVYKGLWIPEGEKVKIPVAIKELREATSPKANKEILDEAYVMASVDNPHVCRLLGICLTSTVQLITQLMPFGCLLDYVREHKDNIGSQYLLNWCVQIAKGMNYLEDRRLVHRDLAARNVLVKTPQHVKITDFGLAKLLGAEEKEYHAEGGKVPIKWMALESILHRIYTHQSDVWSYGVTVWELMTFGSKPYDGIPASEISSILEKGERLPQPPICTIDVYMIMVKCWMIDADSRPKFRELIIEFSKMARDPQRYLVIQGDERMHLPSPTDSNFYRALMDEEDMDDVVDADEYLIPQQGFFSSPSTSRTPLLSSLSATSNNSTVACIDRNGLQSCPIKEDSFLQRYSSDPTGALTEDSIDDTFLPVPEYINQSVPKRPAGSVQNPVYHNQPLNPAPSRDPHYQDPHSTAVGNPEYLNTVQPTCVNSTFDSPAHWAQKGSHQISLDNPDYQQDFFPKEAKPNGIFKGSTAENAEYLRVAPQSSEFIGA
BTK, sequence (Q06187 whole entry): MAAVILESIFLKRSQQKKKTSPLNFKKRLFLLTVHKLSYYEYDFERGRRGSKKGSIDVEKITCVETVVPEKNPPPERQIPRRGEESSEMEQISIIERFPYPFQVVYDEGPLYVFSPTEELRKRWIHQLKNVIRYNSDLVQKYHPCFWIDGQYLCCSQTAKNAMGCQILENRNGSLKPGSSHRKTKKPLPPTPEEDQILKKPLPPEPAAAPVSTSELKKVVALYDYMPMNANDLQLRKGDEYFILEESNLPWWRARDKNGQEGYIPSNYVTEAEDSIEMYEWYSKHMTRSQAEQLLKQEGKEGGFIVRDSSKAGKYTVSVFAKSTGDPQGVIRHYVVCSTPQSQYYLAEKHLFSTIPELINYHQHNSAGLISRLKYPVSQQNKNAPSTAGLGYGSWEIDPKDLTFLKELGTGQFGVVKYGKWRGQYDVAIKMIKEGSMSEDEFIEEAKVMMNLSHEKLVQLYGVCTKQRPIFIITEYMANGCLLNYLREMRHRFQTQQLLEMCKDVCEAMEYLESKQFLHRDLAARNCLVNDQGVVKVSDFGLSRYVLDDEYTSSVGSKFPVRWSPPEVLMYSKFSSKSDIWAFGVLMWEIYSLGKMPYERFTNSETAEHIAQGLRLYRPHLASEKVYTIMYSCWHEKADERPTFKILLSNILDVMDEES

SMILES	IC50 (EGFR-WT; [1]) [µM]	IC50 (BTK) [µM]	IC50 (EGFR-WT) [µM]
C=CC(=O)Nc1cccc(Nc2nc(Nc3ccc(OCCOC)cc3)ncc2C#N)c1 [Compound I-109, N-(3-(5-cyano-2-(4-(2-methoxyethoxy)phenylamino)pyrimidin-4-ylamino)phenyl)acrylamide]	< 0.01	< 0.01	
C=CC(=O)N(C)Cc1ccc(Nc2nc(Nc3cccc(OC)c3)ncc2F)cc1 [Compound I-113, N-(4-(5-fluoro-2-(3-methoxyphenylamino)pyrimidin-4-ylamino)benzyl)-N-methylacrylamide]		< 0.01	0.1 to 1
C=CC(=O)N(C)Cc1ccc(Oc2nc(Nc3ccc(OC)nc3)ncc2F)cc1 [Compound I-117, N-(4-(5-fluoro-2-(6-methoxypyridin-3-ylamino)pyrimidin-4-yloxy)benzyl)-N-methylacrylamide]	1 to 10	< 0.01	
Cc1cccc(Nc2nc(Nc3cccc(NC(=O)/C=C/CN4C[C@@H](C)N[C@@H](C)C4)c3)ncc2F)c1 [Compound I-119, (E)-4-((3R,5S)-3,5-dimethylpiperazin-1-yl)-N-(3-(5-fluoro-4-(m-tolylamino)pyrimidin-2-ylamino)phenyl)but-2-enamide]		0.01 to 0.1	0.1 to 1
COCCN(C)C/C=C/C(=O)Nc1cccc(Nc2ncc(F)c(Nc3cccc(C)c3)n2)c1 [Compound I-120, (E)-N-(3-(5-fluoro-4-(m-tolylamino)pyrimidin-2-ylamino)phenyl)-4-((2-methoxyethyl)(methyl)amino)but-2-enamide]	< 0.01	< 0.01	
C=CC(=O)N1CCOc2ccc(Nc3ncc(F)c(Nc4ccc5c(c4)CC(=O)N5)n3)cc21 [Compound I-130, 5-(2-(4-acryloyl-3,4-dihydro-2H-benzo[b][1,4]oxazin-6-ylamino)-5-fluoropyrimidin-4-ylamino)indolin-2-one]		< 0.01	0.01 to 0.1
C=CC(=O)N1Cc2ccc(Nc3nc(Nc4cccc(OC)c4)ncc3C(F)(F)F)cc2C1 [Compound I-132, 1-(5-(5-trifluoromethyl-2-(3-methoxyphenylamino)pyrimidin-4-yl)amino-1,3-dihydroisoindol-2-yl)2-propen-1-one]		< 0.01	0.01 to 0.1
C=CC(=O)N1CCC[C@@H](Sc2nc(Nc3cccc(OC)c3)ncc2F)C1 [Compound I-137, (R)-1-(3-(5-fluoro-2-(3-methoxyphenylamino)pyrimidin-4-ylthio)piperidin-1-yl)prop-2-en-1-one]	> 10	0.1 to 1	
C=CC(=O)Nc1cccc(Nc2nc(Nc3cccc(OCCCN4CCCC4=O)c3)ncc2F)c1 [Compound I-144, 4-(3-acrylamidophenylamino)-5-fluoro-2-(3-(3-(2-oxopyrrolidin-1-yl)propoxy)phenylamino)-pyrimidine]	< 0.01	< 0.01	
C=CC(=O)Nc1cccc(N(C(=O)C=C)c2nc(Nc3ccc(OC)nc3)ncc2C#N)c1 [Compound I-171, N-(3-acrylamidophenyl)-N-(5-cyano-2-(6-methoxypyridin-3-ylamino)pyrimidin-4-yl)acrylamide]		< 0.01	0.01 to 0.1
C=CC(=O)Nc1cccc(Nc2nc(Nc3ccc4c(c3)CC(=O)N4)ncc2F)c1 [Compound I-181, N-(3-(5-fluoro-2-(2-oxoindolin-5-ylamino)pyrimidin-4-ylamino)phenyl)acrylamide]	< 0.01	< 0.01	
C=CC(=O)N1CC(Nc2nc(Nc3ccc(OC)nc3)ncc2C(C)=O)C1 [Compound I-187, 1-{3-[5-Acetyl-2-(6-methoxy-pyridin-3-ylamino)-pyrimidin-4-ylamino]-azetidin-1-yl}-propenone]		0.01 to 0.1	0.1 to 1
C=CC(=O)N1CCC[C@H](Oc2nc(Nc3ccc(OC)nc3)ncc2F)C1 [Compound I-193, (S)-1-(3-(5-fluoro-2-(6-methoxypyridin-3-ylamino)pyrimidin-4-yloxy)piperidin-1-yl)prop-2-en-1-one]	1 to 10	0.1 to 1	
C=CC(=O)N1CCC[C@H](Nc2nc(Nc3cccc(OC)c3)ncc2F)C1 [Compound I-196, (S)-1-(3-(5-fluoro-2-(3-methoxyphenylamino)pyrimidin-4-ylamino)piperidin-1-yl)prop-2-en-1-one]	1 to 10	0.01 to 0.1	
C=CC(=O)N1CCC(Nc2nc(Nc3ccc(OC)nc3)ncc2F)C1 (centres unmarked) [Compound I-203, 1-(3-(5-fluoro-2-(6-methoxypyridin-3-ylamino)pyrimidin-4-ylamino)pyrrolidin-1-yl)prop-2-en-1-one]		0.01 to 0.1	0.1 to 1
CC(C)=CC(=O)c1ccc(Nc2nc(Nc3ccccc3)ncc2F)cc1 [Compound I-206, 1-(4-(5-fluoro-2-(phenylamino)pyrimidin-4-ylamino)phenyl)-3-methylbut-2-en-1-one]	1 to 10	> 10	
CC(C)=CC(=O)c1cccc(Nc2nc(Nc3cccc(S(N)(=O)=O)c3)ncc2C)c1 [Compound I-224, 1-(3-(5-methyl-2-(3-aminosulfonylphenylamino)pyrimidin-4-ylamino)phenyl)-3-methylbut-2-en-1-one]		0.01 to 0.1	0.1 to 1
CC(C)=CC(=O)c1cccc(Nc2nc(Nc3ccccc3)ncc2C)c1 [Compound I-232, 3-methyl-1-(3-(5-methyl-2-(phenylamino)pyrimidin-4-ylamino)phenyl)but-2-en-1-one]	1 to 10	0.01 to 0.1	
C=CC(=O)Nc1cccc(Nc2nc(Nc3cccnc3)ncc2F)c1 [Compound I-234, N-(3-(5-fluoro-2-(pyridin-3-ylamino)pyrimidin-4-ylamino)phenyl)acrylamide]	> 10	1 to 10	
C=CC(=O)Nc1cccc(Nc2nc(NC3CCCN(C(C)=O)C3)ncc2F)c1 (centres unmarked) [Compound I-238, N-(3-(2-(1-acetylpiperidin-3-ylamino)-5-fluoropyrimidin-4-ylamino)phenyl)acrylamide]	> 10	1 to 10	

Other lines, results leading:

IC50 (EGFR-WT; [1]) [µM]	IC50 (BTK) [µM]	IC50 (EGFR-WT) [µM]	SMILES
< 0.01	< 0.01		Cc1cccc(Nc2nc(Nc3cccc(NC(=O)/C=C/CN4CC[C@@H](O)C4)c3)ncc2F)c1 [Compound I-104, (R,E)-N-(3-(5-fluoro-4-(m-tolylamino)pyrimidin-2-ylamino)phenyl)-4-(3-hydroxypyrrolidin-1-yl)but-2-enamide]
	< 0.01	0.1 to 1	C=CC(=O)N(C)Cc1ccc(Oc2nc(Nc3cccc(OCCCN4CCCC4=O)c3)ncc2F)cc1 [Compound I-111, N-(4-(5-fluoro-2-(3-(3-(2-oxopyrrolidin-1-yl)propoxy)phenylamino)pyrimidin-4-yloxy)benzyl)-N-methylacrylamide]
	< 0.01	0.01 to 0.1	C=CC(=O)Nc1cccc(Nc2nc(Nc3ccc4c(c3)N(C(C)=O)CCO4)ncc2F)c1 [Compound I-112, N-(3-(2-(4-acetyl-2,3-dihydrobenzo[1,4]oxazin-6-yl)amino-5-fluoropyrimidin-4-ylamino)phenyl)acrylamide]
	< 0.01	0.1 to 1	C=CC(=O)N(C)Cc1ccc(Oc2nc(Nc3cccc(OCCCS(C)(=O)=O)c3)ncc2F)cc1 [Compound I-136, N-(4-(5-fluoro-2-(3-(3-(methylsulfonyl)propoxy)phenylamino)pyrimidin-4-yloxy)benzyl)-N-methylacrylamide]
	< 0.01	0.01 to 0.1	C=CC(=O)N1CCOc2ccc(Nc3nc(Nc4ccc(OCCOC)cc4)ncc3F)cc21 [Compound I-141, 1-(6-(5-fluoro-2-(4-(2-methoxyethoxy)phenylamino)pyrimidin-4-ylamino)-2H-benzo[b][1,4]oxazin-4(3H)-yl)prop-2-en-1-one]
	0.1 to 1	> 10	C=CC(=O)N1CCC[C@H](Oc2nc(Nc3cccc(OC)c3)ncc2F)C1 [Compound I-179, (S)-1-(3-(5-fluoro-2-(3-methoxyphenylamino)pyrimidin-4-yloxy)piperidin-1-yl)prop-2-en-1-one]
1 to 10	< 0.01		C=CC(=O)N1CCCC(Oc2nc(Nc3ccc(OC)nc3)ncc2F)C1 (centres unmarked) [Compound I-191]
	0.01 to 0.1	0.01 to 0.1	C=CC(=O)NCc1cccc(Nc2nc(Nc3ccccc3)ncc2C)c1 [Compound I-205, N-(3-(5-methyl-2-(phenylamino)pyrimidin-4-ylamino)benzyl)acrylamide]
1 to 10	1 to 10		C#CCOc1cccc(Nc2ncc(F)c(Nc3cccc(C(=O)C=C(C)C)c3)n2)c1 [Compound I-211, 1-(3-(5-fluoro-2-(3-(prop-2-ynyloxy)phenylamino)pyrimidin-4-ylamino)phenyl)-3-methylbut-2-en-1-one]
1 to 10	1 to 10		C=CC(=O)Nc1cccc(Nc2ncc(F)c(Oc3ccc(Oc4ccccc4)cc3)n2)c1 [Compound I-212]
	0.01 to 0.1	0.1 to 1	C=CC(=O)Nc1ccc(Nc2nc(Nc3cncc(OC)c3)ncc2C(F)(F)F)cc1 [Compound I-214, N-(4-(5-trifluoromethyl-2-(5-methoxypyridin-3-ylamino)pyrimidin-4-ylamino)phenyl)acrylamide]
	0.01 to 0.1	0.01 to 0.1	C=CC(=O)Nc1cccc(Nc2nc(Nc3ccccc3)ncc2C(=O)NC2CC2)c1 [Compound I-221, 4-(3-acrylamidophenylamino)-N-cyclopropyl-2-(phenylamino)pyrimidine-5-carboxamide]
1 to 10	> 10		CC(C)=CC(=O)c1cccc(Nc2nc(Nc3cccc(OC(F)(F)F)c3)ncc2F)c1 [Compound I-223, 1-(3-(5-fluoro-2-(3-(trifluoromethoxy)phenylamino)pyrimidin-4-ylamino)phenyl)-3-methylbut-2-en-1-one]
1 to 10	0.01 to 0.1		C=CC(=O)Nc1ccc(Nc2nc(Nc3cccc(OC)c3)ncc2C(F)(F)F)cc1 [Compound I-236, N-(4-(5-trifluoromethyl-2-(3-methoxyphenylamino)pyrimidin-4-ylamino)phenyl)acrylamide]
